Measurements taken from ChEMBL document CHEMBL1135488, “Prediction of volume of distribution values in humans for neutral and basic drugs using physicochemical measurements and plasma protein binding data” (J Med Chem, 2002).

Legend:
[1] = pH 7.4
Description: Fraction ionized (pH 7.4)

[2] = in vitro; settings: human, plasma
[3] = clinical; settings: human, in vivo, iv
[4] = in vitro
[5] = Ionisation constant (pKa); type: physicochemical

| SMILES | Fraction ionised [1] | fraction unbound [2] | Vd [3] [L/kg] | fraction unbound [4] | fraction unbound ([4]; tissues) | pKa [5] |
| --- | --- | --- | --- | --- | --- | --- |
| CN(C)CCCN1c2ccccc2Sc2ccc(Cl)cc21 [CHLORPROMAZINE] | 0.986 | 0.03 | 21 | 0.001 | – | – |
| Clc1cccc(Cl)c1N=C1NCCN1 [CLONIDINE] | 0.817 | 0.8 | 2.1 | 0.158 | – | – |
| COc1cc(Cc2cnc(N)nc2N)cc(OC)c1OC [TRIMETHOPRIM] | 0.319 | 0.63 | 1.6 | 0.166 | – | – |
| C=C[C@H]1C[N@@]2CC[C@H]1C[C@@H]2[C@@H](O)c1ccnc2ccc(OC)cc12 [QUINIDINE] | 0.817 | – | – | – | 0.019 | – |
| CC(C)NCC(O)COc1cccc2ccccc12 (configuration not stated) [PROPRANOLOL] | 0.991 | – | 4.3 | 0.012 | – | – |
| C=CCc1ccccc1OCC(O)CNC(C)C (configuration not stated) [ALPRENOLOL] | 0.992 | 0.24 | 3.4 | – | 0.028 | – |
| CN(C)CCCN1c2ccccc2CCc2ccccc21 [IMIPRAMINE] | 0.992 | – | 18 | – | 0.002 | – |
| CC(=O)CCCCn1c(=O)c2c(ncn2C)n(C)c1=O [PENTOXIFYLLINE] | 0 | 1 | 4.2 | – | 0.095 | – |
| OC(Cn1cncn1)(Cn1cncn1)c1ccc(F)cc1F [FLUCONAZOLE] | 0 | – | 0.6 | – | 0.814 | Not Active |
| Cn1c(=O)c2c(ncn2C)n(C)c1=O [CAFFEINE] | 0 | – | 0.61 | – | 0.543 | – |
| CN1C(=O)C(O)N=C(c2ccccc2Cl)c2cc(Cl)ccc21 (configuration not stated) [LORMETAZEPAM] | 0 | – | 6.8 | – | 0.007 | – |
| CN1[C@@H]2CC[C@H]1C[C@@H](OC(=O)C(CO)c1ccccc1)C2 (some centres not stated) [ATROPINE] | 0.996 | – | – | – | – | – |
| CN1C(=O)CN=C(c2ccccc2)c2cc(Cl)ccc21 [DIAZEPAM] | 0 | – | – | – | – | – |
| O=C(N[C@H](CO)[C@H](O)c1ccc([N+](=O)[O-])cc1)C(Cl)Cl [CHLORAMPHENICOL] | 0 | 0.47 | 0.94 | – | 0.225 | – |
| CCN(CC)CCNC(=O)c1cc(Cl)c(N)cc1OC [METOCLOPRAMIDE] | 0.988 | – | 3.4 | 0.07 | – | – |
| CCCC(=O)Nc1ccc(OCC(O)CNC(C)C)c(C(C)=O)c1 (configuration not stated) [ACEBUTOLOL] | 0.995 | – | 1.2 | – | 0.273 | – |
| C[C@]12C=CC(=O)C=C1CC[C@@H]1[C@@H]2C(=O)C[C@@]2(C)[C@H]1CC[C@]2(O)C(=O)CO [PREDNISONE] | 0 | 0.25 | 0.97 | – | 0.113 | – |
| Cc1cc(=O)n(-c2ccccc2)n1C [ANTIPYRINE] | 0 | – | 0.6 | – | 0.825 | Not Active |
| O=C1Nc2ccc(Cl)cc2C(c2ccccc2Cl)=NC1O (racemic) [LORAZEPAM] | 0 | – | 1.3 | – | 0.029 | – |
| CN1CC[C@]23c4c5ccc(O)c4O[C@H]2[C@@H](O)C=C[C@H]3[C@H]1C5 [MORPHINE] | 0.858 | – | – | – | – | – |
| COc1ccc([C@@H]2Sc3ccccc3N(CCN(C)C)C(=O)[C@@H]2OC(C)=O)cc1 [DILTIAZEM] | 0.82 | – | 3.1 | – | 0.028 | – |
| CNCCCN1c2ccccc2CCc2ccccc21 [DESIPRAMINE] | 0.999 | – | 20 | 0.003 | – | – |

| SMILES | Fraction ionised [1] | fraction unbound [2] | Vd [3] [L/kg] | fraction unbound [4] | fraction unbound ([4]; tissues) | pKa [5] |
| --- | --- | --- | --- | --- | --- | --- |
| C[C@]12CC[C@@H]3c4ccc(O)cc4CC[C@H]3[C@@H]1CC[C@@H]2O [ESTRADIOL] | 0 | 0.015 | 1.2 | – | 0.005 | – |
| CN(C)CCC(c1ccc(Cl)cc1)c1ccccn1 (configuration not stated) [CHLORPHENIRAMINE] | 0.986 | 0.3 | 3.2 | 0.037 | – | – |
| COC(=O)[C@H]1[C@@H](OC(=O)c2ccccc2)C[C@@H]2CC[C@H]1N2C [COCAINE] | 0.952 | 0.09 | 2 | – | 0.018 | – |
| CCCCc1oc2ccccc2c1C(=O)c1cc(I)c(OCCN(CC)CC)c(I)c1 [AMIODARONE] | 0.955 | – | – | – | – | – |
| Cc1nc2n(c(=O)c1CCN1CCC(c3noc4cc(F)ccc34)CC1)CCCC2 [RISPERIDONE] | 0.764 | – | – | 0.042 | – | – |
| CCN(CC)CC(=O)Nc1c(C)cccc1C [LIDOCAINE] | 0.776 | – | – | – | – | – |
| COC(=O)C1=C(C)NC(C)=C(C(=O)OC)C1c1ccccc1[N+](=O)[O-] [NIFEDIPINE] | – | – | 0.78 | 0.023 | – | – |
| Cc1cccc(C)c1OCC(C)N (configuration not stated) [MEXILETINE] | 0.981 | 0.37 | 4.9 | 0.03 | – | – |
| CNC(=C[N+](=O)[O-])NCCSCc1ccc(CN(C)C)o1 [RANITIDINE] | 0.922 | – | 1.3 | – | 0.289 | 8.47 |
| CN(C)CCOC(c1ccccc1)c1ccccc1 [DIPHENHYDRAMINE] | 0.98 | – | – | – | – | – |
| C[C@]12C=CC(=O)C=C1CC[C@@H]1[C@@H]2[C@@H](O)C[C@@]2(C)[C@H]1CC[C@]2(O)C(=O)CO [PREDNISOLONE] | 0 | 0.075 | 1.5 | 0.021 | – | – |
| COc1ccc2[nH]c([S+]([O-])Cc3ncc(C)c(OC)c3C)nc2c1 (racemic) [OMEPRAZOLE] | 0 | – | 0.34 | – | 0.082 | Not Active |
| O=C(CCCN1CCC(O)(c2ccc(Cl)cc2)CC1)c1ccc(F)cc1 [HALOPERIDOL] | 0.947 | – | 18 | 0.002 | – | – |
| O=C(NCC1CCCCN1)c1cc(OCC(F)(F)F)ccc1OCC(F)(F)F (configuration not stated) [FLECAINIDE] | 0.988 | 0.39 | 4.9 | – | 0.031 | – |
| CN1CCN(C2=Nc3cc(Cl)ccc3Nc3ccccc32)CC1 [CLOZAPINE] | 0.629 | – | 5.4 | 0.004 | – | – |
| CCN(CC)CCNC(=O)c1ccc(N)cc1 [PROCAINAMIDE] | 0.986 | – | – | – | – | – |
| C[C@@H]1C[C@H]2[C@@H]3CCC4=CC(=O)C=C[C@]4(C)[C@@]3(F)[C@@H](O)C[C@]2(C)[C@@]1(O)C(=O)CO [DEXAMETHASONE] | 0 | – | – | 0.182 | – | – |
| CCCNCC(O)COc1ccccc1C(=O)CCc1ccccc1 (configuration not stated) [PROPAFENONE] | 0.987 | – | – | – | – | – |
| CC(C)(C)NCC(O)c1cc(O)cc(O)c1 (configuration not stated) [TERBUTALINE] | 0.952 | – | 1.8 | – | 0.187 | – |
| COCCc1ccc(OCC(O)CNC(C)C)cc1 (configuration not stated) [METOPROLOL] | 0.995 | […] | 4.2 | 0.084 | – | – |
| Cc1nnc2n1-c1ccc(Cl)cc1C(c1ccccc1)=NC2 [ALPRAZOLAM] | 0 | – | 0.72 | – | 0.881 | – |
